# Measured values taken from patent publication US12414960B2, “Analogues of oleuropein and oleacein and uses thereof” (Attica Sciences Ltd., priority 2020, dated 2025).
# Where two headings read alike, the source gives them in different places.
# Legend:
# ATP-citrate lyase (ACLY) = biological target: T1, ATP-citrate lyase (ACLY) (Homo sapiens, UniProt P53396); experiment: ACLY Assay Kit (ADP-Glo) enzymatic activity; type: biochemical
# T1 construct: purchased BPS Bioscience
# T1 sequence (P53396 1-1101): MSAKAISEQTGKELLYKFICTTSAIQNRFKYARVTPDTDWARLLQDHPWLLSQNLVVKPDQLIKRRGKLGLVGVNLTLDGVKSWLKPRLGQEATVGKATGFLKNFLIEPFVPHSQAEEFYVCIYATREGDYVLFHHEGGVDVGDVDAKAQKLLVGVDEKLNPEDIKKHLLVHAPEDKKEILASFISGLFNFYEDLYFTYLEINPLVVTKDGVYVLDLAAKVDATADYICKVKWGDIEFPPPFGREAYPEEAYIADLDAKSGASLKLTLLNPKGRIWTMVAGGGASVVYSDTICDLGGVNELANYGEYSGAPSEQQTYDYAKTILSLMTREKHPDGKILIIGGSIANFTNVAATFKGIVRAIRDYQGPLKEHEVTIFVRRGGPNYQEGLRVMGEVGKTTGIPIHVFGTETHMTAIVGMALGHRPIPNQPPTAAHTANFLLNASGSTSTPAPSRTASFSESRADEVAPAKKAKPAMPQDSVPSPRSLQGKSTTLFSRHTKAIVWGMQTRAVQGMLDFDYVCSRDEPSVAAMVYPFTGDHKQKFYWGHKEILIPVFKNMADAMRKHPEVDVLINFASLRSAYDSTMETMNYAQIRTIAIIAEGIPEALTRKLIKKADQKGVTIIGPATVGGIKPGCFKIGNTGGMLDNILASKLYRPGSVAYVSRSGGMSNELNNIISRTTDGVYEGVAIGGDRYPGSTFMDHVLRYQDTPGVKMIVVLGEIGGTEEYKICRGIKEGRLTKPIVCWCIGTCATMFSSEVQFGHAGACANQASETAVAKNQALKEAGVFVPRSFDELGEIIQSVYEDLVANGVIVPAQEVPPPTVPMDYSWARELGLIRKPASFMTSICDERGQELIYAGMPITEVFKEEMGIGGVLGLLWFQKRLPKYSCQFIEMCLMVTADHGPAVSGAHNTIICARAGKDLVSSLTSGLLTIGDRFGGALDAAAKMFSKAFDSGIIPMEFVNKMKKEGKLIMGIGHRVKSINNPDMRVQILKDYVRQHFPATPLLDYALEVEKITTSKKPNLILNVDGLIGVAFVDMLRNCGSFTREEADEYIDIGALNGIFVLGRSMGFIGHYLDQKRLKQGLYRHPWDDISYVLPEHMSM
# Source text: An ACLY Assay Kit (BPS Bioscience) was used to evaluate GS27 against ATP-citrate lyase (ACLY) enzymatic activity. The ACLY Assay Kit is designed to measure ACLY activity for screening and profiling applications using ADP-Glo™ Kinase Assay as a detection reagent (Promega #V6930). The ADP-Glo™ Kinase Assay is a luminescent ADP detection assay that provides a universal, homogeneous, high-throughput screening method to measure kinase activity by quantifying the amount of ADP produced during a kinase reaction. Multiple (1, 10, 100, 250, 500, 1000, 2000 nM) GS27 concentrations were used to evaluate GS27 IC50 activity.
# [1] = Ferric reducing antioxidant power (FRAP) assay; type: biochemical; details: NS = not statistically significant
# Source text: Reducing power is associated with antioxidant activity and may serve as a significant reflection of the antioxidant activity. Compounds with reducing power indicate that they are electron donors and can reduce the oxidized intermediates of lipid peroxidation processes, so that they can act as primary and secondary antioxidants.
# In this assay, the yellow color of the test solution changes to various shades of green and blue depending on the reducing power of each compound. Presence of reducers causes the conversion of the Fe3+/ferricyanide complex used in this method to the ferrous form which when it reacts with iron chloride it gives a complex which absorbs at 700 nm. The higher the absorption at 700 nm, the greater the reducing capacity (FIG. 6).
# The ferric reducing antioxidant capacity of the GS compounds was investigated by using the potassium ferricyanide-ferric chloride method (Tundis, Rosa et al. LWT—Food Science and Technology, 2013, 53: 370-377). Briefly, 0.2 mL of each of the GS compounds, 2.5 mL of phosphate buffer (0.2 M, pH 6.6), and 2.5 mL of potassium ferricyanide K3Fe(CN)6 (1%) were mixed and incubated at 50° C. for 20 min, to reduce ferricyanide into ferrocyanide. The reaction was stopped by adding 2.5 mL of 10% (w/v) trichloroacetic acid followed by centrifugation at 1000 rpm for 10 min. Finally, 2.5 mL of the upper layer was mixed with 2.5 mL of distilled water and 0.5 mL of FeCl3 (0.1%) and the absorbance was measured at 700 nm.
# [2] = same assay as GS27, read-out: IC50 against ACLY enzyme
Compound,"IC50 (ATP-citrate lyase (ACLY); 1-2000 nM tested, read-out: IC50 of ACLY activity)",Ferric Reducing Power Antioxidant Assay RP0.5AU [1],IC50 (ATP-citrate lyase (ACLY); [2])
"C/C=C(/C=O)[C@@H](CC=O)CC(=O)SCCc1ccccc1 [GS27, S-phenethyl (3S,4E)-4-formyl-3-(2-oxoethyl)hex-4-enethioate]",0.0815 µM,–,–
"C/C=C1/[C@H](OC2OC(CO)C(O)C(O)C2O)OC=C(C(=O)O)[C@H]1CC(=O)OCCc1ccc(O)c(O)c1 (stereo in doubt) [GS6, (2S,4S,E)-4-(2-(3,4-dihydroxyphenethoxy)-2-oxoethyl)-3-ethylidene-2{[(2R,3S,4R,5R,6S)-3,4,5-trihydroxy-6-(hydroxymethyl)tetrahydro-2H-pyran-2-yl]oxy}-3,4dihydro-2H-pyran-5-carboxylic acid]",–,36 μg extract/mL,–
"C/C=C1/[C@H](O[C@@H]2O[C@H](CO)[C@@H](O)[C@H](O)[C@H]2O)OC=C(C(=O)OC)[C@H]1CC(=O)OCCc1ccc(O)c(O)c1 [GS1, oleuropein]",–,35 μg extract/mL,> 10 µM
"C/C=C(/C=O)[C@@H](CC=O)CC(=O)OCCc1ccc(O)cc1 [GS19, (3S,4E)-4-formyl-3-(2-oxoethyl)-4-hexenoic acid 2-(4-hydroxyphenyl)ethyl ester, reference compound]",–,133 μg extract/mL,> 10 µM
"C/C=C(/C=O)[C@@H](CC=O)CC(=O)OCCc1ccc(O)c(O)c1 [GS17, (3S,4E)-4-formyl-3-(2-oxoethyl)-4-hexenoic acid 2-(3,4-dihydroxyphenyl)ethyl ester, reference compound]",–,4.48 μg extract/mL,–
